Results published in ChEMBL document CHEMBL5390202, “Cannabinoid Receptor Type II Ligands from Sandalwood Oil and Synthetic α-Santalol Derivatives” (J Nat Prod, 2023).
Activity calls are given as the source filed them. No cut-off for these calls is given here.

What was measured:
[1] = biological target: T1, Cannabinoid receptor 2 (Homo sapiens, UniProt P34972); test: Displacement of [3H]-CP55940 from human CB2 receptor expressed in CHO cell membranes at 10 uM incubated for 1 hr by TopCount liquid scintillation counting analysis relative to control; details: Membrane
T1 sequence (P34972 whole entry): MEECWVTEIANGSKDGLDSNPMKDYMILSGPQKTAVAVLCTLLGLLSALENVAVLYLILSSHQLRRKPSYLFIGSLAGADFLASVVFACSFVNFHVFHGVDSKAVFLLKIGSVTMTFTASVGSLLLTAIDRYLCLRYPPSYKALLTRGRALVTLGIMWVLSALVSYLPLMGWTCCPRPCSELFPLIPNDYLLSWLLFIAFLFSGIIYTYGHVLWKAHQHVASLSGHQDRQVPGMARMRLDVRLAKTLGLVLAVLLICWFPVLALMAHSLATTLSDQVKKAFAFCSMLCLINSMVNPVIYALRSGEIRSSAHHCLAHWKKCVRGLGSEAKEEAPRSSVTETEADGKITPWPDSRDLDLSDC

[2] = biological target: T1, Cannabinoid receptor 2; test: Agonist activity at CB2 receptor (unknown origin) expressed in human SH-SY5Y cells assessed as increase in intracellular calcium flux at 3.2 to 10 uM incubated for 3 mins by Fluo-4AM dye based fluorescence analysis; assay type: functional, cell-based; details: filed as agonist, dose 3.2-10 µM
[3] = biological target: T1, Cannabinoid receptor 2; test: Displacement of [3H]-CP55940 from human CB2 receptor expressed in CHO cell membranes assessed as inhibition constant incubated for 1 hr by TopCount liquid scintillation counting analysis; parameters: species or system Membrane
[4] = biological target: Cannabinoid receptor 1 (Homo sapiens) (UniProt P21554); test: Displacement of [3H]-CP55940 from human CB1 receptor expressed in CHO cell membranes at 10 uM incubated for 1 hr by TopCount liquid scintillation counting analysis relative to control; details: Membrane
Sequence of Cannabinoid receptor 1 (Homo sapiens) (P21554 whole entry): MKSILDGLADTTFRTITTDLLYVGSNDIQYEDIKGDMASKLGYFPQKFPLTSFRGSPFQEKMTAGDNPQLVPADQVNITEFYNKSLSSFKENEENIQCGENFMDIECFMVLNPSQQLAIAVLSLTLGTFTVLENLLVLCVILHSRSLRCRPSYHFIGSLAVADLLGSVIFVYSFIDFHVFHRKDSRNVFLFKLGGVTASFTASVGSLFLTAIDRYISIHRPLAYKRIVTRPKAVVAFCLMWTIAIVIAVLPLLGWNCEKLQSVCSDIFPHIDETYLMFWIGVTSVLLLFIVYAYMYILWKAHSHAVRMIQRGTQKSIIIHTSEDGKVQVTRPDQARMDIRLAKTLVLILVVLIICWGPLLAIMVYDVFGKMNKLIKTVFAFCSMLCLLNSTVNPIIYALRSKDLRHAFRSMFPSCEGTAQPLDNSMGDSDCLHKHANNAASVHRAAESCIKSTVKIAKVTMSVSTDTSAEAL

[5] = biological target: T1, Cannabinoid receptor 2; test: Agonist activity at CB2 receptor (unknown origin) expressed in human SH-SY5Y cells assessed as increase in intracellular calcium flux at 3.2 to 10 uM incubated for 3 mins in presence of 60 nM AM-630 by Fluo-4AM dye based fluorescence analysis; assay type: functional, cell-based; details: dose 3.2-10 µM
[6] = biological target: T1, Cannabinoid receptor 2; test: Agonist activity at CB2 receptor (unknown origin) expressed in human SH-SY5Y cells assessed as increase in intracellular calcium flux at 3.2 to 10 uM incubated for 3 mins in presence of 10 uM raloxifene by Fluo-4AM dye based fluorescence analysis; assay type: functional, cell-based; details: dose 3.2-10 µM
[7] = biological target: 5-hydroxytryptamine receptor 2A (Rattus norvegicus, UniProt P14842); test: Displacement of [3H]-ketanserin from rat brain cortex 5-HT2A receptor incubated for 60 mins by liquid scintillation counting analysis; assay type: tissue-based
Sequence of 5-hydroxytryptamine receptor 2A (P14842 whole entry): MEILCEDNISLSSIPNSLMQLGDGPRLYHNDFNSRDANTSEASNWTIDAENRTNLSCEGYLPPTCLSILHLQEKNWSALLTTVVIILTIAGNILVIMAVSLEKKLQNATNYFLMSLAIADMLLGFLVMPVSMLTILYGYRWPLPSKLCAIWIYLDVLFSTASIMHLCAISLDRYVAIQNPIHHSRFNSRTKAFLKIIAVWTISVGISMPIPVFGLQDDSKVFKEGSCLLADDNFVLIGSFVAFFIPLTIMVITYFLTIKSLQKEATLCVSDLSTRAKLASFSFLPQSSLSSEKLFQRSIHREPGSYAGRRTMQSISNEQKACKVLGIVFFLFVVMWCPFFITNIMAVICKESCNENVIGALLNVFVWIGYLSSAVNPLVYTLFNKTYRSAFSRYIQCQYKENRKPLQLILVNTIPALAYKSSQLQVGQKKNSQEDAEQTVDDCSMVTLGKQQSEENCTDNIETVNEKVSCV

[8] = biological target: D(2) dopamine receptor (Rattus norvegicus, UniProt P61169); test: Displacement of [3H]-raclopride from rat brain striatum dopamine D2 receptor incubated for 60 mins by liquid scintillation counting analysis; assay type: tissue-based
Sequence of D(2) dopamine receptor (P61169 whole entry): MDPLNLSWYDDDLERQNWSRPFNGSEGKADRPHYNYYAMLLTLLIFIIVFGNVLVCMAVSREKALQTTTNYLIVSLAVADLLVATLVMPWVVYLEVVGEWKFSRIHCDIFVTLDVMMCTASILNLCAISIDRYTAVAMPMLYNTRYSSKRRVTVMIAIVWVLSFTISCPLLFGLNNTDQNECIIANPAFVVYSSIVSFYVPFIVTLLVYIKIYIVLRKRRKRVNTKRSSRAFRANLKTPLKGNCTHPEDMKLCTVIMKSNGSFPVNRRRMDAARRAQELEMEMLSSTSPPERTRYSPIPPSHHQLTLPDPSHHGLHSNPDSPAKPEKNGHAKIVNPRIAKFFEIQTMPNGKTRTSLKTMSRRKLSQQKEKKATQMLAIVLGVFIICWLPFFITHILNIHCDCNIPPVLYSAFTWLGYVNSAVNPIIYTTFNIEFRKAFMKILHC

[9] = biological target: T1, Cannabinoid receptor 2; test: Agonist activity at CB2 receptor (unknown origin) expressed in human SH-SY5Y cells assessed as increase in intracellular calcium flux at 0.032 to 0.1 uM incubated for 3 mins by Fluo-4AM dye based fluorescence analysis; assay type: functional, cell-based; details: filed as agonist, dose 0.032-0.1 µM
[10] = biological target: T1, Cannabinoid receptor 2; test: Agonist activity at CB2 receptor (unknown origin) expressed in human SH-SY5Y cells assessed as increase in intracellular calcium flux at 0.032 to 0.1 uM incubated for 3 mins in presence of 60 nM AM-630 by Fluo-4AM dye based fluorescence analysis; assay type: functional, cell-based; details: dose 0.032-0.1 µM
[11] = biological target: T1, Cannabinoid receptor 2; test: Agonist activity at CB2 receptor (unknown origin) expressed in human SH-SY5Y cells assessed as increase in intracellular calcium flux at 0.032 to 0.1 uM incubated for 3 mins in presence of 10 uM raloxifene by Fluo-4AM dye based fluorescence analysis; assay type: functional, cell-based; details: dose 0.032-0.1 µM
[12] = biological target: T1, Cannabinoid receptor 2; test: Potency index, ratio of alpha-santalol Ki to test compound Ki for displacement of [3H]-CP55940 from human CB2 receptor expressed in CHO cell membranes incubated for 1 hr by TopCount liquid scintillation counting analysis; details: Membrane, filed as agonist

## C/C(=C/CC[C@]1(C)[C@@H]2C[C@@H]3[C@H](C2)[C@@]31C)CN(C)C
[1]
  Activity: 2.94%

## C=C1[C@@H]2CC[C@@H](C2)[C@@]1(C)CC/C=C(/C)CO
[2]
  Activity: Active
[3]
  Ki: 8.19 µM
[1]; filed as agonist
  Activity: 55.8%
[4]
  Activity: < 16%
[5]
  Activity: inactive
[6]
  Activity: inactive

## C/C(=C/CC[C@]1(C)[C@@H]2C[C@@H]3[C@H](C2)[C@@]31C)CN1CCCC1
[1]
  Activity: 8.03%

## C/C(=C/CC[C@]1(C)[C@H]2CC3[C@H](C2)[C@]31C)CO
[7]
  IC50: 180 µM
[2]
  Activity: Active
[3]
  Ki: 10.5 µM
[1]; filed as agonist
  Activity: 62.5%
[4]
  Activity: < 16%
[8]
  IC50: 75 µM
[5]
  Activity: inactive
[6]
  Activity: inactive

## C/C(=C/CC[C@]1(C)[C@H]2C[C@@H]3[C@@H](C2)[C@]31C)CN1CCN(C)CC1
[3]
  Ki: 0.99 µM
[1]; filed as agonist
  Activity: 82.1%
[4]
  Activity: < 20%
[9]
  Activity: Active
[10]
  Activity: inactive
[11]
  Activity: inactive
[12]
  Ratio Ki: 10.6

## O=C(c1ccc(OCCN2CCCCC2)cc1)c1c(-c2ccc(O)cc2)sc2cc(O)ccc12 [RALOXIFENE]
[3]
  Ki: ~0.24 µM

## C/C(=C/CC[C@]1(C)[C@@H]2C[C@@H]3[C@H](C2)[C@@]31C)CN1CCOCC1
[1]
  Activity: 21.3%

## COc1ccc(C(=O)c2c(C)n(CCN3CCOCC3)c3cc(I)ccc23)cc1
[1]; filed as antagonist
  Activity: 93%

## C/C(=C/CC[C@]1(C)[C@@H]2C[C@@H]3[C@H](C2)[C@@]31C)COC(=O)CCC(=O)O
[1]
  Activity: 5.82%

## C/C(=C/CC[C@]1(C)[C@@H]2C[C@@H]3[C@H](C2)[C@@]31C)CNNC(=O)c1ccccc1
[1]
  Activity: 26.9%

## C/C(=C/CC[C@]1(C)[C@@H]2C[C@@H]3[C@H](C2)[C@@]31C)CNNC(=O)c1ccc(N(C)C)cc1
[1]
  Activity: 26.5%

## C/C(=C/CC[C@]1(C)[C@@H]2C[C@@H]3[C@H](C2)[C@@]31C)CN1CCCCC1
[1]
  Activity: 16.8%

## C/C(=C/CC[C@]1(C)[C@@H]2C[C@@H]3[C@H](C2)[C@@]31C)CN(CCO)CCO
[1]
  Activity: 1.72%
